Laboratory results published in US9796700B2 (Celgene CAR LLC, priority 2013, dated 2017).

What was measured:
MEK1 activated ERK1 = MEK1 activated ERK1 (Homo sapiens (Human), UniProt P27361); test: Omnia continuous-read kinase assay for potency against MEK1 activated ERK1; format: biochemical; conditions: MEK1 activated ERK1, WT, ATP at KM
Outline: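 Apparent IC50 came from initial reaction slopes (RFU vs time) plotted against log inhibitor with a variable-slope fit. Reactions were started with ERK1 (4 nM final) added to 50 μM ATP, roughly at its appKM, and 10 μM Sox-conjugated ST17 peptide in 20 mM Tris pH 7.5, 5 mM MgCl2. Fluorescence was monitored every 71 seconds.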

Erk1 = Erk1 (Homo sapiens (Human), UniProt P27361); test: Protein Mass Modification Assay (intact protein MALDI); format: binding
Outline: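 Human Erk1 was incubated 60 min at room temperature with a 10-fold molar excess of compound, then analysed as intact protein by MALDI with sinapinic acid matrix. The centroid mass shift versus untreated protein was divided by compound molecular weight to give percent modified protein.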

Chain of MEK1 activated ERK1 (P27361 whole entry): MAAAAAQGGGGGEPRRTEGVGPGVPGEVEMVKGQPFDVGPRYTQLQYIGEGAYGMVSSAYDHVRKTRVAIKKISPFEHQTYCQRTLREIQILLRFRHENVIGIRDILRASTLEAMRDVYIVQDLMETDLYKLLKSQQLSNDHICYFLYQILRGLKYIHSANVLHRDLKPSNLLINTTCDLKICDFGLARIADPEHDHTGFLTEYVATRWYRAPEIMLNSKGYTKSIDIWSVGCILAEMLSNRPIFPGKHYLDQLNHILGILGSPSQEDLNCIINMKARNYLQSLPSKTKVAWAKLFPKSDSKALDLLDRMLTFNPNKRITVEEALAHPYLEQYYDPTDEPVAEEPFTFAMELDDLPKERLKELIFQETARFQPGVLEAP
Chain of Erk1 (P27361 whole entry, looked up): as the sequence (P27361 whole entry) above

CC(=O)N1CCC[C@H](Nc2ncc(C(F)(F)F)c(N[C@@H]3[C@H](C(N)=O)[C@H]4C=C[C@@H]3C4)n2)C1 [Compound I-309, (1R,2R,3S,4S)-3-((2-(((S)-1-acetylpiperidin-3-yl)amino)-5-(trifluoromethyl)pyrimidin-4-yl)amino)bicyclo[2.2.1]hept-5-ene-2-carboxamide]
IC50 (MEK1 activated ERK1): > 1000 nM
ERK1 Mass Mod (%) (Erk1): G (proived a mass modification ≦30%)

C=CC(=O)N(C)c1ccccc1Nc1nc(Nc2cc(C(=O)NOC)ccc2C#N)ncc1Cl [Compound I-197, 3-((5-chloro-4-((2-(N-methylacrylamido)phenyl)amino)pyrimidin-2-yl)amino)-4-cyano-N-methoxybenzamide]
IC50 (MEK1 activated ERK1): > 1000 nM
ERK1 Mass Mod (%) (Erk1): E (provided a mass modification of ≧70%)

C=CC(=O)Nc1cccc(Nc2nc(Nc3ccc(N4CCN(C(C)=O)CC4)cc3OC)ncc2Cl)c1 [Compound I-298, N-(3-((2-((4-(4-acetylpiperazin-1-yl)-2-methoxyphenyl)amino)-5-chloropyrimidin-4-yl)amino)phenyl)acrylamide]
IC50 (MEK1 activated ERK1): > 1000 nM
ERK1 Mass Mod (%) (Erk1): G (proived a mass modification ≦30%)

C=CC(=O)Nc1ccccc1Oc1nc(Nc2ccc(N3CCN(C(C)=O)CC3)cc2OC)ncc1Cl [Compound I-259, N-(2-((2-((4-(4-acetylpiperazin-1-yl)-2-methoxyphenyl)amino)-5-chloropyrimidin-4-yl)oxy)phenyl)acrylamide]
IC50 (MEK1 activated ERK1): > 1000 nM
ERK1 Mass Mod (%) (Erk1): F (provided a mass modification of 31-69%)

C=CC(=O)Nc1cc(OC)ccc1Nc1nc(Nc2cc(OC)nc(N3CCN(C)CC3)c2)ncc1C(F)(F)F [Compound I-334, N-(5-methoxy-2-((2-((2-methoxy-6-(4-methylpiperazin-1-yl)pyridin-4-yl)amino)-5-(trifluoromethyl)pyrimidin-4-yl)amino)phenyl)acrylamide]
IC50 (MEK1 activated ERK1): < 100 nM
ERK1 Mass Mod (%) (Erk1): E (provided a mass modification of ≧70%)

CC(C)=CC(=O)c1ccccc1Nc1nc(Nc2cc(C(N)=O)ccc2C)ncc1Cl [Compound I-216, 3-((5-chloro-4-((2-(3-methylbut-2-enoyl)phenyl)amino)pyrimidin-2-yl)amino)-4-methylbenzamide]
IC50 (MEK1 activated ERK1): > 1000 nM
ERK1 Mass Mod (%) (Erk1): G (proived a mass modification ≦30%)

C=CC(=O)Nc1ccccc1Nc1nc(N[C@H]2CCCN(C(=O)OC(C)(C)C)C2)ncc1Cl [Compound I-132, (S)-tert-butyl 3-((4-((2-acrylamidophenyl)amino)-5-chloropyrimidin-2-yl)amino) piperidine-1-carboxylate]
IC50 (MEK1 activated ERK1): > 1000 nM
ERK1 Mass Mod (%) (Erk1): E (provided a mass modification of ≧70%)

C=CC(=O)Nc1cc(OC)ccc1Nc1nc(Nc2ccc(N3CC[C@H](O)C3)cc2C#N)ncc1Cl [Compound I-165, (S)—N-(2-((5-chloro-2-((2-cyano-4-(3-hydroxypyrrolidin-1-yl)phenyl)amino)pyrimidin-4-yl)amino)-5-methoxyphenyl)acrylamide]
IC50 (MEK1 activated ERK1): > 1000 nM
ERK1 Mass Mod (%) (Erk1): F (provided a mass modification of 31-69%)

CC(C)S(=O)(=O)c1ccccc1Nc1nc(N[C@H]2CCCN(C(=O)CO)C2)ncc1C(F)(F)F [Compound I-310, (S)-2-hydroxy-1-(3-((4-((2-(isopropylsulfonyl)phenyl)amino)-5-(trifluoromethyl)pyrimidin-2-yl)amino)piperidin-1-yl)ethanone]
IC50 (MEK1 activated ERK1): < 100 nM
ERK1 Mass Mod (%) (Erk1): G (proived a mass modification ≦30%)

C=CC(=O)Nc1cc(C)ccc1Nc1nc(Nc2cnnc(OC)c2)ncc1C(F)(F)F [Compound I-335, N-(2-((2-((6-methoxypyridazin-4-yl)amino)-5-(trifluoromethyl)pyrimidin-4-yl)amino)-5-methylphenyl)acrylamide]
IC50 (MEK1 activated ERK1): > 1000 nM
ERK1 Mass Mod (%) (Erk1): E (provided a mass modification of ≧70%)

Cc1ccc(C(N)=O)cc1Nc1ncc(Cl)c(Nc2ccccc2NC(=O)/C=C/CN(C)C)n1 [Compound I-218, (E)-3-((5-chloro-4-((2-(4-(dimethylamino)but-2-enamido)phenyl)amino)pyrimidin-2-yl)amino)-4-methylbenzamide]
IC50 (MEK1 activated ERK1): > 1000 nM
ERK1 Mass Mod (%) (Erk1): G (proived a mass modification ≦30%)

C=CC(=O)Nc1ccc(C)cc1Nc1nc(N[C@H]2CCCN(C(=O)CO)C2)ncc1C(F)(F)F [Compound I-37, (S)—N-(2-((2-((1-(2-hydroxyacetyl)piperidin-3-yl)amino)-5-(trifluoromethyl)pyrimidin-4-yl)amino)-4-methylphenyl)acrylamide]
IC50 (MEK1 activated ERK1): < 100 nM
ERK1 Mass Mod (%) (Erk1): E (provided a mass modification of ≧70%)

C=CC(=O)Nc1cc(C)ccc1Nc1nc(N[C@H]2CCCN(C(=O)c3ccccc3)C2)ncc1C(F)(F)F [Compound I-44, (S)—N-(2-((2-((1-Benzoylpiperidin-3-yl)amino)-5-(trifluoromethyl)pyrimidin-4-yl)amino)-5-methylphenyl)acrylamide]
IC50 (MEK1 activated ERK1): > 1000 nM
ERK1 Mass Mod (%) (Erk1): E (provided a mass modification of ≧70%)

C=CC(=O)Nc1cc(Cl)ccc1Nc1nc(Nc2cc(OC)ncc2C)ncc1C(F)(F)F [Compound I-289, N-(5-Chloro-2-((2-((2-methoxy-5-methylpyridin-4-yl)amino)-5-(trifluoromethyl)pyrimidin-4-yl)amino)phenyl)acrylamide]
IC50 (MEK1 activated ERK1): < 100 nM
ERK1 Mass Mod (%) (Erk1): E (provided a mass modification of ≧70%)

C=CC(=O)Nc1ccccc1Nc1nc(N[C@H]2CCCN(C(=O)CCCC(=O)NCCCOCCOCCOCCCNC(=O)CCCC[C@@H]3SC[C@@H]4NC(=O)N[C@@H]43)C2)ncc1Cl [Compound I-303, 5-((S)-3-((4-((2-acrylamidophenyl)amino)-5-chloropyrimidin-2-yl)amino)piperidin-1-yl)-5-oxo-N-(15-oxo-19-((3aS,4S,6aR)-2-oxohexahydro-1H-thieno[3,4-d]imidazol-4-yl)-4,7,10-trioxa-14-azanonadecyl)pentanamide]
IC50 (MEK1 activated ERK1): > 1000 nM
ERK1 Mass Mod (%) (Erk1): E (provided a mass modification of ≧70%)

C/C=C/C(=O)Nc1ccccc1Nc1nc(Nc2cc(C(N)=O)ccc2C)ncc1Cl [Compound I-219, (E)-3-((4-((2-(but-2-enamido)phenyl)amino)-5-chloropyrimidin-2-yl)amino)-4-methylbenzamide]
IC50 (MEK1 activated ERK1): > 1000 nM
ERK1 Mass Mod (%) (Erk1): G (proived a mass modification ≦30%)

C=CC(=O)Nc1ccccc1Nc1nc(N[C@H]2CCC[C@@H](C(N)=O)C2)ncc1C(F)(F)F [Compound I-118, (1R,3S)-3-((4-((2-acrylamidophenyl)amino)-5-(trifluoromethyl)pyrimidin-2-yl)amino)cyclohexanecarboxamide]
IC50 (MEK1 activated ERK1): < 100 nM
ERK1 Mass Mod (%) (Erk1): E (provided a mass modification of ≧70%)

C=CC(=O)Nc1ccccc1Nc1nc(Nc2cc(OC)nc(N3CCS(=O)(=O)CC3)c2)ncc1C(F)(F)F [Compound I-291, N-(2-((2-((2-(1,1-Dioxidothiomorpholino)-6-methoxypyridin-4-yl)amino)-5-(trifluoromethyl)pyrimidin-4-yl)amino)phenyl)acrylamide]
IC50 (MEK1 activated ERK1): < 100 nM
ERK1 Mass Mod (%) (Erk1): E (provided a mass modification of ≧70%)

C=CC(=O)Nc1ccccc1Nc1nc(N[C@H]2CCCN(C(=O)CO)C2)ncc1Cl [Compound I-123, (S)—N-(2-((5-chloro-2-((1-(2-hydroxyacetyl)piperidin-3-yl)amino)pyrimidin-4-yl)amino)phenyl)acrylamide]
IC50 (MEK1 activated ERK1): < 100 nM
ERK1 Mass Mod (%) (Erk1): E (provided a mass modification of ≧70%)

C=CC(=O)N[C@@H]1CCCC[C@H]1Nc1nc(Nc2cc(C(=O)NOC)ccc2C)ncc1Cl [Compound I-190, 3-((4-(((1R,2R)-2-acrylamidocyclohexyl)amino)-5-chloropyrimidin-2-yl)amino)-N-methoxy-4-methylbenzamide]
IC50 (MEK1 activated ERK1): > 1000 nM
ERK1 Mass Mod (%) (Erk1): F (provided a mass modification of 31-69%)

C=CC(=O)Nc1cc(C)ccc1Nc1nc(Nc2nc(O)ncc2C)ncc1C(F)(F)F [Compound I-364, N-(2-((2-((2-hydroxy-5-methylpyrimidin-4-yl)amino)-5-(trifluoromethyl)pyrimidin-4-yl)amino)-5-methylphenyl)acrylamide]
IC50 (MEK1 activated ERK1): < 100 nM
ERK1 Mass Mod (%) (Erk1): E (provided a mass modification of ≧70%)

C=CC(=O)Nc1ccccc1Nc1nc(Nc2ccc(N(CCNC(=O)OC(C)(C)C)C(C)=O)cc2C(F)(F)F)ncc1Cl [Compound I-170, tert-butyl (2-(N-(4-((4-((2-acrylamidophenyl)amino)-5-chloropyrimidin-2-yl)amino)-3-(trifluoromethyl)phenyl)acetamido)ethyl)carbamate]
IC50 (MEK1 activated ERK1): > 1000 nM
ERK1 Mass Mod (%) (Erk1): E (provided a mass modification of ≧70%)

CC(C)=CC(=O)c1ccccc1Oc1nc(Nc2cc(C(N)=O)ccc2C)ncc1C(N)=O [Compound I-271, 2-((5-carbamoyl-2-methylphenyl)amino)-4-(2-(3-methylbut-2-enoyl)phenoxy)pyrimidine-5-carboxamide]
IC50 (MEK1 activated ERK1): > 1000 nM
ERK1 Mass Mod (%) (Erk1): G (proived a mass modification ≦30%)

CCC(=O)Nc1ccccc1Nc1nc(Nc2ccc3c(c2OC)CCCC(=O)N3CC)ncc1Cl [Compound I-315, N-(2-((5-chloro-2-((1-ethyl-6-methoxy-2-oxo-2,3,4,5-tetrahydro-1H-benzo[b]azepin-7-yl)amino)pyrimidin-4-yl)amino)phenyl)propionamide]
IC50 (MEK1 activated ERK1): > 1000 nM
ERK1 Mass Mod (%) (Erk1): G (proived a mass modification ≦30%)

C=CC(=O)Nc1ccccc1Nc1nc(Nc2cc(NCCOC)nc(OC)c2)ncc1C(F)(F)F [Compound I-286, N-(2-((2-((2-Methoxy-6-((2-methoxyethyl)amino)pyridin-4-yl)amino)-5-(trifluoromethyl)pyrimidin-4-yl)amino)phenyl)acrylamide]
IC50 (MEK1 activated ERK1): < 100 nM
ERK1 Mass Mod (%) (Erk1): E (provided a mass modification of ≧70%)
